The source of these data is patent publication US9750724B2, “Use of an aromatase inhibitor for the treatment of hypogonadism and related diseases” (Mereo BioPharma 2 Limited, priority 2011, dated 2017).

Read-outs that look alike come from different tables or passages of the source.

The nature of data set [1]: Single ascending dose study in pre- and post-menopausal women, pharmacokinetics. It counts as in vivo, human. As to conditions: female, human, in vivo, 2.5 mg. From the text:
The drug concentration in plasma and/or serum samples can be determined by a number of different ways, e.g. HPLC or LC-MS/MS analyses. […]
A minimal toxic dose (MTD) was not reached. […] Table 3 presents the PK parameters based on preliminary analysis of the concentration-time profile obtained from this study.

In data set [2] the test system is serum testosterone, estradiol, LH and FSH. As to conditions: 2.5 mg weekly, cited from earlier work; for free testosterone: fixed dosing interval.

What is called Tmax is the time at which the peak concentration occurs. As usually defined, the AUC(0-t) is exposure summed from dosing to a finite time, without extrapolation to infinity. A lower AUC(0-t) goes with less exposure. For orientation: Cmax means the peak of the concentration-time curve. The term half-life denotes how long it takes for the measured level to halve. In the case of `N#Cc1ccc(C(c2ccc(C#N)cc2)n2cncn2)cc1` [Letrozole, letrozole], the Tmax in data set [1] is 1 h. Moreover, the AUC(0-t) in data set [1] (AUC (0-tlast) Mean) was 1670 ng·h/mL. The molecule also gave a Cmax in data set [1] (Cmax Mean) of 33.5 ng/mL. Also, the half-life in data set [1] (T1/2 Mean) was 69.6 h. For the same molecule, in data set [2] (12 OHH men), the “LH and FSH” value is “increased LH and FSH”; the total estradiol entry is listed as “suppressed total estradiol”. Moreover, in data set [2] (12 OHH men, de Boer 2005, Loves 2008), the total testosterone result is “increased total testosterone into the normal range”. In addition, in data set [2], the free testosterone entry was “rose above the normal range in approximately half of the subjects”. The free testosterone result in data set [2] (listed as letrozole) is recorded as “excessive free testosterone levels in approximately half the subjects”.
